NS(=O)(=O)c1ccccc1
Details	solubility (mole fraction)
in acetone, 273.15 K	0.117
in acetone, 279.15 K	0.123
in acetone, 283.45 K	0.13
in acetone, 288.95 K	0.138
in acetone, 293.25 K	0.145
in acetone, 298.85 K	0.156
in acetone, 303.15 K	0.165
in acetone, 308.15 K	0.176
in acetone, 313.15 K	0.188
in acetone, 317.65 K	0.201
in acetone, 323.15 K	0.217
in acetonitrile, 273.15 K	0.0348
in acetonitrile, 279.15 K	0.0396
in acetonitrile, 283.45 K	0.0446
in acetonitrile, 288.95 K	0.0507
in acetonitrile, 293.25 K	0.0568
in acetonitrile, 298.85 K	0.0649
in acetonitrile, 303.15 K	0.0723
in acetonitrile, 308.15 K	0.0817
in acetonitrile, 313.15 K	0.0928
in acetonitrile, 317.65 K	0.104
in acetonitrile, 323.15 K	0.118
in cyclohexanone, 273.15 K	0.114
in cyclohexanone, 279.15 K	0.12
in cyclohexanone, 283.85 K	0.126
in cyclohexanone, 289.15 K	0.134
in cyclohexanone, 293.75 K	0.142
in cyclohexanone, 299.15 K	0.151
in cyclohexanone, 303.75 K	0.161
in cyclohexanone, 309.15 K	0.171
in cyclohexanone, 313.35 K	0.181
in cyclohexanone, 319.15 K	0.195
in cyclohexanone, 324.45 K	0.21
in cyclopentanone, 273.15 K	0.14
in cyclopentanone, 279.15 K	0.146
in cyclopentanone, 283.85 K	0.152
in cyclopentanone, 289.15 K	0.16
in cyclopentanone, 293.75 K	0.167
in cyclopentanone, 299.15 K	0.177
in cyclopentanone, 303.75 K	0.187
in cyclopentanone, 309.15 K	0.201
in cyclopentanone, 313.35 K	0.21
in cyclopentanone, 319.15 K	0.228
in cyclopentanone, 324.45 K	0.245
in dichloromethane, 273.15 K	0.00134
in dichloromethane, 279.15 K	0.00175
in dichloromethane, 283.45 K	0.00214
in dichloromethane, 288.95 K	0.00278
in dichloromethane, 293.25 K	0.00335
in dichloromethane, 298.85 K	0.00424
in dichloromethane, 303.15 K	0.00495
in dichloromethane, 308.15 K	0.00602
in dichloromethane, 312.15 K	0.00691
in ethanol, 273.15 K	0.0159
in ethanol, 279.15 K	0.0182
in ethanol, 283.45 K	0.0199
in ethanol, 288.95 K	0.0231
in ethanol, 293.25 K	0.0261
in ethanol, 298.85 K	0.0307
in ethanol, 303.15 K	0.0355
in ethanol, 308.15 K	0.041
in ethanol, 313.15 K	0.048
in ethanol, 317.65 K	0.0547
in ethanol, 323.15 K	0.0635
in ethyl acetate, 273.15 K	0.0325
in ethyl acetate, 279.15 K	0.036
in ethyl acetate, 283.45 K	0.0389
in ethyl acetate, 288.95 K	0.0429
in ethyl acetate, 293.25 K	0.0467
in ethyl acetate, 298.85 K	0.0517
in ethyl acetate, 303.15 K	0.0563
in ethyl acetate, 308.15 K	0.0615
in ethyl acetate, 313.15 K	0.0682
in ethyl acetate, 317.65 K	0.0736
in ethyl acetate, 323.15 K	0.082
in ethyl formate, 273.15 K	0.018
in ethyl formate, 279.15 K	0.0204
in ethyl formate, 283.45 K	0.0228
in ethyl formate, 288.95 K	0.026
in ethyl formate, 293.25 K	0.0289
in ethyl formate, 298.85 K	0.0327
in ethyl formate, 303.15 K	0.0367
in ethyl formate, 308.15 K	0.0416
in ethyl formate, 313.15 K	0.047
in ethyl formate, 317.65 K	0.0526
in ethyl formate, 323.15 K	0.0596
in isobutanol, 273.15 K	0.00387
in isobutanol, 279.15 K	0.0045
in isobutanol, 283.85 K	0.00537
in isobutanol, 289.15 K	0.00666
in isobutanol, 293.75 K	0.00808
in isobutanol, 299.15 K	0.00996
in isobutanol, 303.75 K	0.012
in isobutanol, 309.15 K	0.0148
in isobutanol, 313.35 K	0.0176
in isobutanol, 319.15 K	0.0214
in isobutanol, 324.45 K	0.0255
in isopentanol, 273.15 K	0.00419
in isopentanol, 279.15 K	0.00488
in isopentanol, 283.85 K	0.00557
in isopentanol, 289.15 K	0.00683
in isopentanol, 293.75 K	0.00804
in isopentanol, 299.15 K	0.00999
in isopentanol, 303.75 K	0.0119
in isopentanol, 309.15 K	0.0148
in isopentanol, 313.35 K	0.0172
in isopentanol, 319.15 K	0.021
in isopentanol, 324.45 K	0.0249
in isopropanol, 273.15 K	0.0076
in isopropanol, 279.15 K	0.00834
in isopropanol, 283.85 K	0.00964
in isopropanol, 289.15 K	0.0119
in isopropanol, 293.75 K	0.0141
in isopropanol, 299.15 K	0.0172
in isopropanol, 303.75 K	0.0213
in isopropanol, 309.15 K	0.0261
in isopropanol, 313.35 K	0.0305
in isopropanol, 319.15 K	0.0371
in isopropanol, 324.45 K	0.0444
in methanol, 273.15 K	0.0295
in methanol, 279.15 K	0.0325
in methanol, 283.45 K	0.0357
in methanol, 288.95 K	0.041
in methanol, 293.25 K	0.046
in methanol, 298.85 K	0.0536
in methanol, 303.15 K	0.061
in methanol, 308.15 K	0.0699
in methanol, 313.15 K	0.0808
in methanol, 317.65 K	0.0923
in methanol, 323.15 K	0.107
in methyl acetate, 273.15 K	0.0423
in methyl acetate, 279.15 K	0.0467
in methyl acetate, 283.45 K	0.0503
in methyl acetate, 288.95 K	0.0556
in methyl acetate, 293.25 K	0.0606
in methyl acetate, 298.85 K	0.0677
in methyl acetate, 303.15 K	0.0743
in methyl acetate, 308.15 K	0.0823
in methyl acetate, 313.15 K	0.0915
in methyl acetate, 317.65 K	0.101
in methyl acetate, 323.15 K	0.113
in n-butanol, 273.15 K	0.00578
in n-butanol, 279.15 K	0.00679
in n-butanol, 283.85 K	0.00798
in n-butanol, 289.15 K	0.00946
in n-butanol, 293.75 K	0.011
in n-butanol, 299.15 K	0.0135
in n-butanol, 303.75 K	0.016
in n-butanol, 309.15 K	0.0195
in n-butanol, 313.35 K	0.0226
in n-butanol, 319.15 K	0.0276
in n-butanol, 324.45 K	0.0323
in n-pentanol, 273.15 K	0.00474
in n-pentanol, 279.15 K	0.00538
in n-pentanol, 283.85 K	0.00616
in n-pentanol, 289.15 K	0.00727
in n-pentanol, 293.75 K	0.00894
in n-pentanol, 299.15 K	0.0111
in n-pentanol, 303.75 K	0.0131
in n-pentanol, 309.15 K	0.0164
in n-pentanol, 313.35 K	0.0188
in n-pentanol, 319.15 K	0.0232
in n-pentanol, 324.45 K	0.0278
in n-propanol, 273.15 K	0.00806
in n-propanol, 279.15 K	0.00907
in n-propanol, 283.85 K	0.0103
in n-propanol, 289.15 K	0.0122
in n-propanol, 293.75 K	0.0143
in n-propanol, 299.15 K	0.0175
in n-propanol, 303.75 K	0.0208
in n-propanol, 309.15 K	0.0254
in n-propanol, 313.35 K	0.0293
in n-propanol, 319.15 K	0.036
in n-propanol, 324.45 K	0.0423

Source: BigSolDB 2.1
